Measured values: patent US20100298141A1, “SUBSTITUTED PYRIDINE N-OXIDE HERBICIDES” (E. I. DU PONT DE NEMOURS AND COMPANY, priority 2007, published 2010)

Assays:
Russian thistle = assay: Test C pre-/postemergence test; assay type: in vivo, Salsola kali; details: for Plant response rating, Russian Thistle: 31 g ai/ha, scale 0 to 100 (0 no effect, 100 complete control)
Description: Seeds of plant species selected from blackgrass (Alopecurus myosuroides), downy brome (Bromus tectorum), green foxtail (Setaria viridis), Italian ryegrass (Lolium multiflorum), wheat (Triticum aestivum), wild oat (Avena fatua), catchweed bedstraw (Galium aparine), Russian thistle (Salsola kali), […] (Cynodon dactylon), Surinam grass (Brachiaria decumbens), cocklebur (Xanthium strumarium), corn (Zea mays), crabgrass (Digitaria sanguinalis), woolly cupgrass (Eriochloa villosa), giant foxtail (Setaria faberii), Goosegrass (Eleusin indica), johnsongrass (Sorghum halepense), kochia (Kochia scoparia), lambsquarters (Chenopodium album), morningglory (Ipomoea coccinea), eastern black nightshade (Solanum ptycanthum), yellow nutsedge (Cyperus esculentus), pigweed (Amaranthus retroflexus), common ragweed (Ambrosia elation), soybean (Glycine max), common (oilseed) sunflower (Helianthus annuus), and velvetleaf (Abutilon theophrasti) were planted and treated preemergence with test chemicals formulated in a non-phytotoxic solvent mixture which included a surfactant. At the same time, plants selected from these crop and weed species and also winter barley (Hordeum vulgare), canarygrass (Phalaris minor), and chickweed (Stellaria media) were treated with postemergence applications of some of the test chemicals formulated in the same manner. Plants ranged in height from 2 to 18 cm (1- to 4-leaf stage) for postemergence treatments. […] At time of treatment, test pots were flooded to 3 cm above the soil surface, treated by application of test compounds directly to the paddy water, and then maintained at that water depth for the duration of the test. […] A dash (-) response means no test result.

pitted morningglory = assay: Test F preemergence test; assay type: in vivo, Ipomoea lacunosa; details: scale 0 to 100
How it was run: (§1)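 Test chemicals in a non-phytotoxic solvent mixture containing a surfactant were applied preemergence to sown seeds or postemergence to sugarcane plants. Treated plants and controls were held in a greenhouse for 14 to 21 days, then visually evaluated against controls.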

purple nutsedge = assay: Test F preemergence test; assay type: in vivo, Cyperus rotundus; details: scale 0 to 100
How it was run: as §1

itchgrass = assay: Test F preemergence test; assay type: in vivo, Rottboellia cochinchinensis; details: scale 0 to 100
How it was run: as §1

Italian ryegrass = assay: Test F preemergence test; assay type: in vivo, Lolium multiflorum; details: scale 0 to 100
How it was run: as §1

green foxtail = assay: Test F preemergence test; assay type: in vivo, Setaria viridis; details: scale 0 to 100
How it was run: as §1

barnyardgrass = assay: Test F preemergence test; assay type: in vivo, Echinochloa crus-galli
How it was run: as §1

johnsongrass = assay: Test F preemergence test; assay type: in vivo, Sorghum halepense; details: scale 0 to 100
How it was run: as §1

field bindweed = assay: Test F preemergence test; assay type: in vivo, Convolvulus arvensis; details: scale 0 to 100
How it was run: as §1

common ragweed = assay: Test F preemergence test; assay type: in vivo, Ambrosia elation; details: scale 0 to 100
How it was run: as §1

goosegrass = assay: Test F preemergence test; assay type: in vivo, Eleusine indica; details: scale 0 to 100
How it was run: as §1

large crabgrass = assay: Test F preemergence test; assay type: in vivo, Digitaria sanguinalis; details: scale 0 to 100
How it was run: as §1

common purslane = assay: Test F preemergence test; assay type: in vivo, Portulaca oleracea; details: scale 0 to 100
How it was run: as §1

annual bluegrass = assay: Test F preemergence test; assay type: in vivo, Poa annua; details: scale 0 to 100
How it was run: as §1

southern sandbur = assay: Test F preemergence test; assay type: in vivo, Cenchrus echinatus; details: scale 0 to 100
How it was run: as §1

naked crabgrass = assay: Test F preemergence test; assay type: in vivo, Digitaria nuda; details: scale 0 to 100
How it was run: as §1

[1] = 62 g ai/ha, Preemergence, scale 0 to 100
[2] = preemergence, 250 g ai/ha, scale 0 (no effect) to 100 (complete control)

## Cc1cc[n+]([O-])c(S(=O)(=O)Cc2c(C(F)(F)F)nn(C)c2OC(C)C(F)(F)F)c1 (stereo not shown) [Compound 96]
Russian thistle; [1]
  Russian Thistle plant response rating: 50
Russian thistle; 125 g ai/ha, preemergence, scale 0 (no effect) to 100 (complete control)
  Russian Thistle plant response rating: 80
Russian thistle; Preemergence
  Plant response rating, Russian Thistle: 0
Russian thistle; [2]
  Russian Thistle plant response rating: 100

## Cc1cc[n+]([O-])c(S(=O)(=O)C(Cl)c2c(C(F)(F)F)nn(C)c2OCC(F)(F)F)c1 (racemic) [Compound 37]
Pitted morningglory; 16 g ai/ha, preemergence
  Plant response rating, Morningglory: 0
Pitted morningglory; 62 g ai/ha, Preemergence
  Morningglory plant response rating: 0
Pitted morningglory; 125 g ai/ha, preemergence
  Morningglory plant response rating: 35
Pitted morningglory; Preemergence, 31 g ai/ha
  Plant response rating, Morningglory: 0
Purple nutsedge; 16 g ai/ha, preemergence
  Plant response rating, Purple Nutsedge: 0
Purple nutsedge; 62 g ai/ha, Preemergence
  Purple Nutsedge plant response rating: 0
Purple nutsedge; 125 g ai/ha, preemergence
  Purple Nutsedge plant response rating: 0
Purple nutsedge; Preemergence, 31 g ai/ha
  Plant response rating, Purple Nutsedge: 0
itchgrass; 16 g ai/ha, preemergence
  Plant response rating, Itchgrass: 0
itchgrass; 62 g ai/ha, Preemergence
  Itchgrass plant response rating: 35
itchgrass; 125 g ai/ha, preemergence
  Itchgrass plant response rating: 80
itchgrass; Preemergence, 31 g ai/ha
  Plant response rating, Itchgrass: 0
Italian ryegrass; 16 g ai/ha, preemergence
  Plant response rating, Ryegrass, Italian: 20
Italian ryegrass; 125 g ai/ha, preemergence
  Ryegrass, Italian plant response rating: 100
Italian ryegrass; Preemergence, 62 g ai/ha
  Plant response rating, Ryegrass, Italian: 90
Italian ryegrass; Preemergence, 31 g ai/ha
  Plant response rating, Ryegrass, Italian: 75
Green foxtail; 16 g ai/ha, preemergence
  Plant response rating, Foxtail, Green: 0
Green foxtail; 62 g ai/ha, Preemergence
  Foxtail, Green plant response rating: 15
Green foxtail; 125 g ai/ha, preemergence
  Foxtail, Green plant response rating: 90
Green foxtail; Preemergence, 31 g ai/ha
  Plant response rating, Foxtail, Green: 10
barnyardgrass; 16 g ai/ha, preemergence, scale 0 to 100 (0 no effect, 100 complete control)
  Plant response rating, Barnyardgrass: 20
barnyardgrass; [1]
  Barnyardgrass plant response rating: 100
barnyardgrass; 125 g ai/ha, preemergence, scale 0 to 100
  Barnyardgrass plant response rating: 100
barnyardgrass; Preemergence, 31 g ai/ha, scale 0 to 100
  Plant response rating, Barnyardgrass: 40
johnsongrass; 16 g ai/ha, preemergence
  Plant response rating, Johnsongrass: 30
johnsongrass; 62 g ai/ha, Preemergence
  Johnsongrass plant response rating: 75
johnsongrass; 125 g ai/ha, preemergence
  Johnsongrass plant response rating: 100
johnsongrass; Preemergence, 31 g ai/ha
  Plant response rating, Johnsongrass: 75
Field bindweed; 16 g ai/ha, preemergence
  Plant response rating, Field Bindweed: 0
Field bindweed; 62 g ai/ha, Preemergence
  Field Bindweed plant response rating: 0
Field bindweed; 125 g ai/ha, preemergence
  Field Bindweed plant response rating: 0
Field bindweed; Preemergence, 31 g ai/ha
  Plant response rating, Field Bindweed: 0
Common ragweed; 16 g ai/ha, preemergence
  Plant response rating, Ragweed: 0
Common ragweed; 125 g ai/ha, preemergence
  Ragweed plant response rating: 0
Common ragweed; Preemergence, 62 g ai/ha
  Plant response rating, Ragweed: 0
Common ragweed; Preemergence, 31 g ai/ha
  Plant response rating, Ragweed: 0
goosegrass; 16 g ai/ha, preemergence
  Plant response rating, Goosegrass: 65
goosegrass; 62 g ai/ha, Preemergence
  Goosegrass plant response rating: 75
goosegrass; 125 g ai/ha, preemergence
  Goosegrass plant response rating: 98
goosegrass; Preemergence, 31 g ai/ha
  Plant response rating, Goosegrass: 65
Russian thistle; Preemergence
  Plant response rating, Russian Thistle: 100
Russian thistle; [2]
  Russian Thistle plant response rating: 100
Large crabgrass; 16 g ai/ha, preemergence
  Plant response rating, Crabgrass, Large: 0
Large crabgrass; 62 g ai/ha, Preemergence
  Crabgrass, Large plant response rating: 50
Large crabgrass; 125 g ai/ha, preemergence
  Crabgrass, Large plant response rating: 50
Large crabgrass; Preemergence, 31 g ai/ha
  Plant response rating, Crabgrass, Large: 35
Common purslane; 16 g ai/ha, preemergence
  Plant response rating, Purslane: 0
Common purslane; 62 g ai/ha, Preemergence
  Purslane plant response rating: 25
Common purslane; 125 g ai/ha, preemergence
  Purslane plant response rating: 50
Common purslane; Preemergence, 31 g ai/ha
  Plant response rating, Purslane: 0
Annual bluegrass; 16 g ai/ha, preemergence
  Plant response rating, Bluegrass: 0
Annual bluegrass; 62 g ai/ha, Preemergence
  Bluegrass plant response rating: 60
Annual bluegrass; 125 g ai/ha, preemergence
  Bluegrass plant response rating: 80
Annual bluegrass; Preemergence, 31 g ai/ha
  Plant response rating, Bluegrass: 10
Southern sandbur; 16 g ai/ha, preemergence
  Plant response rating, Sandbur: 35
Southern sandbur; 125 g ai/ha, preemergence
  Sandbur plant response rating: 90
Southern sandbur; Preemergence, 62 g ai/ha
  Plant response rating, Sandbur: 90
Southern sandbur; Preemergence, 31 g ai/ha
  Plant response rating, Sandbur: 70
Naked crabgrass; 16 g ai/ha, preemergence
  Plant response rating, Crabgrass, Naked: 40
Naked crabgrass; 62 g ai/ha, Preemergence
  Crabgrass, Naked plant response rating: 40
Naked crabgrass; 125 g ai/ha, preemergence
  Crabgrass, Naked plant response rating: 100

## Cn1nc(C(F)(F)F)c(CS(=O)(=O)c2ccc(Cl)c[n+]2[O-])c1Cl [Compound 18]
Russian thistle; [1]
  Russian Thistle plant response rating: 30
Russian thistle; Preemergence
  Plant response rating, Russian Thistle: 0
